Laboratory results taken from PubChem BioAssay (NCI).
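Exposure lasted 48 hours, with cells grown in 96-well plates and compounds tested at five concentrations. Definition used: TGI = concentration required for complete inhibition of growth.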

Experiments:
Experiment in all cases: growth of human tumour cells (NCI), 48 h
U251 CNS = tested on: U251 CNS
HL-60(TB) leukemia = tested on: HL-60(TB) leukemia
MCF7 breast = tested on: MCF7 breast
HCT-116 colon = tested on: HCT-116 colon
OVCAR-4 ovarian = tested on: OVCAR-4 ovarian
786-0 renal = tested on: 786-0 renal
T-47D breast = tested on: T-47D breast
HOP-92 NSCLC = tested on: HOP-92 NSCLC
HS 578T breast = tested on: HS 578T breast
MDA-N = tested on: MDA-N
MOLT-4 leukemia = tested on: MOLT-4 leukemia
RXF 393 renal = tested on: RXF 393 renal
CCRF-CEM leukemia = tested on: CCRF-CEM leukemia
SN12C renal = tested on: SN12C renal
CAKI-1 renal = tested on: CAKI-1 renal
UACC-62 melanoma = tested on: UACC-62 melanoma
SK-MEL-5 melanoma = tested on: SK-MEL-5 melanoma
SF-268 CNS = tested on: SF-268 CNS
HCT-15 colon = tested on: HCT-15 colon
SW-620 colon = tested on: SW-620 colon
NCI/ADR-RES ovarian = tested on: NCI/ADR-RES ovarian
SF-539 CNS = tested on: SF-539 CNS
KM12 colon = tested on: KM12 colon
A549 NSCLC = tested on: A549 NSCLC
LOX IMVI melanoma = tested on: LOX IMVI melanoma
SNB-19 CNS = tested on: SNB-19 CNS
MDA-MB-231 breast = tested on: MDA-MB-231 breast
TK-10 renal = tested on: TK-10 renal
RPMI-8226 leukemia = tested on: RPMI-8226 leukemia
NCI-H226 lung = tested on: NCI-H226 lung
HT29 colon = tested on: HT29 colon
M14 melanoma = tested on: M14 melanoma
PC-3 prostate = tested on: PC-3 prostate
BT-549 breast = tested on: BT-549 breast
MDA-MB-435 = tested on: MDA-MB-435
SK-MEL-2 melanoma = tested on: SK-MEL-2 melanoma
A498 renal = tested on: A498 renal
HCC-2998 colon = tested on: HCC-2998 colon
MALME-3M melanoma = tested on: MALME-3M melanoma
SR leukemia = tested on: SR leukemia
UACC-257 melanoma = tested on: UACC-257 melanoma
SK-MEL-28 melanoma = tested on: SK-MEL-28 melanoma
NCI-H23 lung = tested on: NCI-H23 lung
UO-31 renal = tested on: UO-31 renal
HOP-62 NSCLC = tested on: HOP-62 NSCLC
NCI-H522 lung = tested on: NCI-H522 lung
IGROV1 ovarian = tested on: IGROV1 ovarian
SNB-75 CNS = tested on: SNB-75 CNS
EKVX NSCLC = tested on: EKVX NSCLC
ACHN renal = tested on: ACHN renal
SK-OV-3 ovarian = tested on: SK-OV-3 ovarian
OVCAR-8 ovarian = tested on: OVCAR-8 ovarian
SF-295 CNS = tested on: SF-295 CNS
OVCAR-3 ovarian = tested on: OVCAR-3 ovarian
OVCAR-5 ovarian = tested on: OVCAR-5 ovarian

Measured: TGI

COC(=O)C(=O)C(C(=O)OC)C(=O)C(=O)Nc1ccccc1C(N)=O (stereo not given)
> 100 µM: all assays above
